# Measurements published in patent US11485728B2, “Small molecules for the treatment of autoimmune diseases and cancer” (Athos Therapeutics, Inc., priority 2020, dated 2022).
# What was measured:
# [1] = Formulation visual stability (DMA/PG/PEG 300/water); format: physicochemical; details: 25° C., 10-11 mg/mL in DMA/PG/PEG 300/Water
# Protocol: All formulations were conducted with FDA approved excipients and with high purity material such as USP grade quality. Formulation stability of test articles are performed using HPLC purity method described within analytical section. This formula may be used for oral administration of the compounds described herein; […]. Since these compounds have high solubility in lower pH as described in the solubility study section, the intervenous delivery is performed with 100% phosphate buffer solution of pH 6.5 allowing up to 7 mg/mL concentration. The formulated test articles can be store at 4° C. Prior to dosing, it should be warmed and vortexed for about 1 min to make a homogenous solution. If needed, filter through 0.2 μM syringe filter to maintain clean and sterile.
# [2] = tested on: HT-29 colorectal cancer cells; assay: HT-29 cell viability (Real-Time-Glo); format: cell-based; details: Homo sapiens, HT-29; 72 hr; read-out: IC50, Cell line: HT-29
# Protocol: Equal volume of 2× RealTime-Glo™ reagent (2 μl of MT Cell Viability Substrate 1,000×, and 2 μl of NanoLuc® Enzyme 1,000×, per 1 ml of media, Promega) was added to each well and cells were incubated at 37° C. Luminescence was evaluated at 72 h.
# (§1) To determine the plating density for cell viability assays, for each cell line, cells were counted and diluted to final densities of 2.5, 5, 10 and 20 thousand per 100 μl of their respective growth media per well in 96 well plates. A Promega Real-Time-Glo cell viability kit was used to determine the optimal concentration for cell plating so that each cell line would be within the linear part of its growth curve after 72 hrs in culture. […] Test compounds were then added at different concentrations for the creation of six-point curve and cell density was determined using the Promega Real-Time-Glo cell viability kit after 24, 48, and 72 hrs in culture.
# Specifically, the Promega Real-Time-Glo cell viability kit was used to determine the optimal concentration for cell plating so that each cell line would be within the linear part of its growth curve after 72 hrs in culture. […] Test compounds are then added at different concentrations for the creation of six-point curve and cell density is determined using the Promega Real-Time-Glo cell viability kit after 24, 48, and 72 hrs in culture. […]
# [3] = In-vitro half-life in mouse liver microsomes; format: in vitro ADME; details: Mouse liver microsomes 0.5 mg/mL; 1 μg/mL drug; NRS; read-out: Metabolic Half-life
# Protocol: (§2) In each of the species (human, rat, mouse) of liver matrix to be tested, a working concentration of 2 μg/mL was prepared of each test article from the 0.5 mg/mL DMSO stock solution by adding 3 μL of 0.5 mg/mL test article stock solution to 747 μL of the 1 mg/mL liver matrix. Incubation was performed at 37±2° C. with gentle, continuous mixing in shaking water bath in 2.0 mL-well capacity 96-Deepwell plates (96-DWP). Samples were retrieved in duplicate at the following time points: 0, 5, 10, 15, 30 and 60 minutes. The final mixture contained 1 μg/mL of drug and 0.5 mg/mL of liver matrix. First, 50 μL of test articles in liver matrix was added to the 96-DWP and pre-warmed the mixture in the 96-DWP for 2 minutes in the 37° C. water bath. The enzymatic reaction was started by the addition of 50 μL of the corresponding 2× NADPH regenerating system (NRS) cofactor solution to all sample wells and stopped by the addition of 300 μL of stop solution (acetonitrile containing 10 ng/mL Tolbutamide as an internal standard (I.Std.). The samples were agitated for 10 minutes and then centrifuged for 20 minutes at 4500 rpm. 25 μL of supernatant was diluted with 475 μL acetonitrile containing I. Std. into a new 96-DWPs for LC-MS/MS analysis.
# (§3) Half-life calculations were generated and calculated by Graphpad Prism® software. The half-life of test compound was calculated based on the first-order reaction kinetics. The data was transformed to linear regression (y=log(y) where “y” axis represents the % compound remaining at any given time with respect to time 0 minutes; “x” axis represents time in minutes) in order to calculate the half-life.
# (§4) A comparison of metabolic stability in time-course incubation experiments in varying species of liver can provide information of pharmacokinetic properties of drugs attributable to species-related differences in hepatic metabolism. The results of these experiments often assist in further applications such as assessing in vitro metabolite profiling and choosing relevant species for toxicology studies based on similarities relative to the metabolic stability to the human profile. For these experiments, the test compound was tested in parallel with a positive control, Dasatinab, in an enzymatic reaction solution of each species (human and rat) of liver microsomes containing a NADPH regenerating system (NRS). The final mixture contained 1 μg/mL of drug and 0.5 mg/mL of liver matrix. Incubations were performed at 37±2° C. with gentle, continuous mixing in shaking water bath in 96-Deep well plates. The stability of the test compound is monitored using fast, specific and sensitive LC/MS/MS analysis.
# [4] = In-vitro half-life in human liver microsomes; format: in vitro ADME; details: Human liver microsomes 0.5 mg/mL; 1 μg/mL drug; NRS; read-out: Metabolic Half-life
# Protocol: as §2, §3, §4
# [5] = In-vitro half-life in rat liver microsomes; format: in vitro ADME; details: Rat liver microsomes 0.5 mg/mL; 1 μg/mL drug; NRS; read-out: Metabolic Half-life
# Protocol: as §2, §3, §4
# [6] = PAMPA permeability; details: PAMPA, 5 hours at RT
# Source text: Parallel artificial membrane permeability (PAMPA) assay is a non-cell based assay designed to predict in vivo biological membrane permeability of drugs in early stage of drug discovery. […] The Corning Gentest Pre-coated PAMPA plate system was designed by 96-well insert system with a 0.45 μm PVDF (polyvinylidene fluoride) filter plate which has been pre-coated with structured tri-layers of phospholipids (lipid/oil/lipid) and a matched receiver microplate.
# Donor solutions of test compounds (300 μL, 20 μM in PBS/MeOH 90:10) were added to each well of the donor plate. 200 μL of PBS/MeOH 90:10 was added to each well of the acceptor plate. The acceptor plate was coupled with the donor plate and incubated for 5 hours at room temperature (RT) without agitation. In each plate, compounds were tested in triplicate. At the end of the incubation, drug concentration in the initial donor solution, acceptor and the donor wells were determined using LC/MS/MS. A five (5) points standard curve from 0.1 to 1000 nM for each test compound were prepared. Analyte samples were diluted to within standard curve concentration with ACN/H2O 50:50 prior analysis.
# All samples were analyzed by electrospray ionization (ESI) liquid chromatograph/mass spectrometry (LC/MS) system utilizing Sciex 5500 quadropule ion trap (Qtrap) mass spectrometry with Shidmazu Nexera X2 UHPLC. The LC-MS/MS instrument monitored each of the test compound in the study based of their respective mass-to-charge (m/z) transitions and MS parameters. Chromatographic separation was achieved on Phenomenex Luna C18 column (50×2.0 mm, 3 μm particle size) by using a gradient elution: mobile phase A contains 0.1% formic acid in water and mobile phase B contains 0.1% formic acid in acetonitrile; A/B (99:1) from 0 to 1 minutes; to A/B (1:99) from 1 to 4 minutes; A/B (1:99) from 4 to 8 minutes; to A/B (99:1) from 8 to 8.20 minutes; A/B (99:1) from 8.2 to 9 minutes. The flow rate was 0.4 mL/min and the column temperature was maintained at 35° C. and autosampler temperature at 4° C. For detection, the electrospray ionization operated in the positive mode using multiple reaction monitoring (MRM).
# Data acquisition, and peak integrations were obtained by Analyst® Version 1.7.1 (Sciex) operating with Windows® (Microsoft). The standard curve regressions and sample concentrations were generated and calculated by Analyst®. Concentrations in the sample solutions were determined based on the measured peak area ratios from the response of the analyte to the internal standard with reference to the standard calibration curve. All sample calculations were calculated using a linear regression with 1/x^2 weighting (where x is the concentration of given calibration standard level).
# Permeability of the test compounds was calculated using the following formula:
# The permeability of compounds was evaluated with the parallel artificial membrane permeation assay (PAMPA) as an in vivo model of passive diffusion across a porous filter coated with a lipid/oil/lipid tri-layer artificial membrane. […] Donor solutions of test compounds (300 μL, 20 μM in PBS/MeOH 90:10) were added to each well of the donor plate. 200 μL of PBS/MeOH 90:10 was added to each well of the acceptor plate. The acceptor plate was coupled with the donor plate and incubated for 5 hours at room temperature (RT) without agitation. In each plate, compounds were tested in triplicate. At the end of the incubation, drug concentration in the initial donor solution, acceptor and the donor wells were determined using LC/MS/MS. Permeability of test compounds was calculated based on the formula described in the General Procedures above. The PAMPA permeability classification criteria are categorized into three (3) classes with a high (Pe≥1.5×10−6 cm/s), intermediate (5.5×10−8<Pe<1.5×10−6 cm/s), and low (Pe<5.5×10−8 cm/s) permeability.
# [7] = tested on: HCT-116; assay: HCT-116 cell viability (Real-Time-Glo); format: cell-based; details: Homo sapiens, 72 hr, read-out: IC50, Cell line: HCT-116
# Protocol: as §1
# [8] = tested on: mouse; details: oral; cited from earlier work
# [9] = cited from earlier work
structure (smiles),measurement,setting,value
"COc1cc2c(NC3CCN(C4CCCCC4)CC3)nc(N3CCCN(C(C)C)CC3)nc2cc1OCCCN1CCCCC1 [Compound 402, reference compound]",Appearance,[1]; 30 min,clear
same,Appearance,[1]; 1 h,clear
same,Appearance,[1]; 5 h,clear
same,Appearance,[1]; 24 h,clear
same,Appearance,[1]; 7 d,clear
same,IC50,[2],10 to 20 µM
same,half-life at 1 μg/mL,[3],> 1 h
same,half-life at 1 μg/mL,[4],> 1 h
same,half-life at 1 μg/mL,[5],> 1 h
same,"Papp at 5 h, 20 μM","[6]; PAMPA permeability Classification, 20 μM donor",< 0.055 ×10⁻⁶ cm/s
same,"Papp at 5 h, 20 μM","[6]; Permeability, Pe, 20 μM donor in PBS/MeOH 90:10",0.00971 ×10⁻⁶ cm/s
same,IC50,[7],5 to 10 µM
"CC(O)CO (centres unmarked) [PG, propylene glycol]",LD50,[8],22000 mg/kg
O=C(O)Cc1ccccc1Nc1c(Cl)cccc1Cl [Diclofenac],permeability of positive control (published),[9],high permeability
